Reference: ChEMBL document CHEMBL1129358, “Esters and amides of 6-(chloromethyl)-2-oxo-2H-1-benzopyran-3-carboxylic acid as inhibitors of alpha-chymotrypsin: significance of the "aromatic" nature of the novel ester-type coumarin for strong inhibitory activity” (J Med Chem, 1996)
Activity calls are given as the source filed them. The calls are words filed in the database; no cut-off is given here.

Experiments:
[1] = biological target: Chymotrypsinogen A (Bos taurus) (UniProt P00766); assay: Ratio between k inactivation and KI of alpha-chymotrypsin; No inhibition
[2] = biological target: T1, Neutrophil elastase (Homo sapiens) (UniProt P08246); assay: Ratio between k observed and KI of Human leukocyte elastase (HEL);[…]
T1 sequence (whole entry): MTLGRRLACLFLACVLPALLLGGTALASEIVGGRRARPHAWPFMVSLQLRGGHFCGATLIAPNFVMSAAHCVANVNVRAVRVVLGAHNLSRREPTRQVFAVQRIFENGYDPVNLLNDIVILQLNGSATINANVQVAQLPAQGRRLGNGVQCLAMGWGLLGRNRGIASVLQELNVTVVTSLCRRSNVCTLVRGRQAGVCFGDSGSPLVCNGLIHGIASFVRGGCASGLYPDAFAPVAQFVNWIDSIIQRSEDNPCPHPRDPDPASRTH

[3] = biological target: Chymotrypsinogen A (Bos taurus) (UniProt P00766); assay: Ratio between k inactivation and KI of alpha-chymotrypsin
Chymotrypsinogen A = Chymotrypsinogen A (Bos taurus, UniProt P00766); assay: Compound was tested for the binding affinity against alpha-chymotrypsin
[4] = biological target: Chymotrypsinogen A (Bos taurus) (UniProt P00766); assay: Compound was tested for the Inactivation of alpha-chymotrypsin
[5] = biological target: T1, Neutrophil elastase (Homo sapiens); assay: Ratio between k observed and KI of Human leukocyte elastase (HEL)
[6] = test system: alpha-chymotrypsin (Bos taurus); assay: Ratio between k observed and KI of bovine alpha-chymotrypsin at 20 degree C

SMILES | K obs / 1 [2] | K inact/Ki [3] [M⁻¹ s⁻¹] | other results
O=C(O)c1cc2cc(CCl)ccc2oc1=O | inactive |  | K inact/Ki [1]: inactive
Cc1ccc(OC(=O)c2cc3cc(CCl)ccc3oc2=O)cc1 | inactive | 685 | 
CCCCCCCCCCNC(=O)c1cc2cc(CCl)ccc2oc1=O | inactive |  | 
O=C(Oc1ccccc1I)c1cc2cc(CCl)ccc2oc1=O |  | 80000 | Ki (Chymotrypsinogen A): 250 nM; K inact [4]: 0.02 s⁻¹; K obs / 1 [5]: 85 M⁻¹ s⁻¹
O=C(Oc1cccc(I)c1)c1cc2cc(CCl)ccc2oc1=O |  | 72100 | K obs / 1 [5]: 85 M⁻¹ s⁻¹
C=CCNC(=O)c1cc2cc(CCl)ccc2oc1=O | inactive | 80 | 
O=C(Nc1ccccc1)c1cc2cc(CCl)ccc2oc1=O | inactive | 32 | 
O=c1ccc2cc(CBr)ccc2o1 |  |  | K obs / 1 [6]: 12.5 M⁻¹ s⁻¹
CC(C)NC(=O)c1cc2cc(CCl)ccc2oc1=O | inactive |  | K inact/Ki [1]: inactive
O=C(Oc1ccccc1)c1cc2cc(CCl)ccc2oc1=O |  | 100000 | Ki (Chymotrypsinogen A): 340 nM; K inact [4]: 0.034 s⁻¹; K obs / 1 [5]: 23 M⁻¹ s⁻¹
C=CCOC(=O)c1cc2cc(CCl)ccc2oc1=O | inactive | 424 | Ki (Chymotrypsinogen A): 33000 nM; K inact [4]: 0.014 s⁻¹
Cc1cc(OC(=O)c2cc3cc(CCl)ccc3oc2=O)ccc1Cl |  | 7550 | K obs / 1 [5]: 90 M⁻¹ s⁻¹
O=C(Oc1cccc([N+](=O)[O-])c1)c1cc2cc(CCl)ccc2oc1=O |  | 11300 | K obs / 1 [5]: 500 M⁻¹ s⁻¹
O=C(Oc1cccc(Cl)c1)c1cc2cc(CCl)ccc2oc1=O |  | 763000 | K obs / 1 [5]: 630 M⁻¹ s⁻¹
O=C(NCc1ccccc1)c1cc2cc(CCl)ccc2oc1=O |  | 24 | K obs / 1 [5]: 58 M⁻¹ s⁻¹
CC(C)OC(=O)c1cc2cc(CCl)ccc2oc1=O | inactive | 687 | Ki (Chymotrypsinogen A): 16000 nM; K inact [4]: 0.011 s⁻¹

SMILES | K obs / 1 [2] | K inact/Ki [3] [M⁻¹ s⁻¹] | other results
COC(=O)c1cc2cc(CCl)ccc2oc1=O | inactive | 110 | 
O=C(OCc1ccccc1)c1cc2cc(CCl)ccc2oc1=O | inactive | 186 | 
CCCCCOC(=O)c1cc2cc(CCl)ccc2oc1=O | inactive | 12 | 
O=C(Oc1ccccc1Cl)c1cc2cc(CCl)ccc2oc1=O |  | 48100 | Ki (Chymotrypsinogen A): 790 nM; K inact [4]: 0.038 s⁻¹; K obs / 1 [5]: 23 M⁻¹ s⁻¹
COC(=O)C(Cc1ccccc1)NC(=O)c1cc2cc(CCl)ccc2oc1=O (stereo unspecified) | inactive | 80 | 
COC(=O)CNC(=O)c1cc2cc(CCl)ccc2oc1=O | inactive | 12 | 
Cc1cccc(OC(=O)c2cc3cc(CCl)ccc3oc2=O)c1 | inactive | 71800 | 
CCCCCCCCOC(=O)c1cc2cc(CCl)ccc2oc1=O | inactive | 190 | 
O=C(NCCc1ccccc1)c1cc2cc(CCl)ccc2oc1=O | inactive | 6 | 
Cc1ccc2oc(=O)c(C(=O)Oc3ccccc3)cc2c1 |  |  | K inact/Ki [1]: inactive; K obs / 1 [5]: 330 M⁻¹ s⁻¹
CCCCCNC(=O)c1cc2cc(CCl)ccc2oc1=O | inactive |  | K inact/Ki [1]: inactive
O=C(Oc1ccc(I)cc1)c1cc2cc(CCl)ccc2oc1=O | inactive | 1780 | 
CNC(=O)c1cc2cc(CCl)ccc2oc1=O | inactive |  | K inact/Ki [1]: inactive
Cc1ccccc1OC(=O)c1cc2cc(CCl)ccc2oc1=O | inactive | 114000 | Ki (Chymotrypsinogen A): 380 nM; K inact [4]: 0.043 s⁻¹
CCOC(=O)c1cc2cc(CCl)ccc2oc1=O | inactive | 220 | Ki (Chymotrypsinogen A): 59000 nM; K inact [4]: 0.013 s⁻¹
O=C(Oc1ccc(Cl)cc1)c1cc2cc(CCl)ccc2oc1=O | inactive | 330 | 
